Experimental data as given in US7544709B2, “Derivatives of andrimide and moiramide B having antibacterial properties” (Bayer Healthcare AG, priority 2001, dated 2009).
Values after ≈ are worked out from the molar mass of the structure shown. Where two headings read alike, the source gives them in different places.

Assays:
[1] = tested on: Haemophilus influenzae Spain 7; experiment: Determination of minimum inhibitory concentration (MIC), liquid dilution test; type: cell-based; details: SPAIN7, BHI broth plus 20% bovine serum, 10 μg/ml hemin and 1% Isovitale, 37° C., 18-24 hours, 8-10% CO2
Procedure: (§1) Determination of Minimum Inhibitory Concentration (MIC):
(§2) The MIC is determined in the liquid dilution test. Overnight cultures of the test organisms are diluted to a cell count of 10^5 organisms per ml in Isosensitest medium (manufacturer: Difco) and are incubated with dilutions of the test substances (1:2 dilution states). Exceptions are the tests with S. pneumoniae G9A, which are conducted in BHI broth (Difco) plus 20% bovine serum, and with H. influenzae, which are conducted in BHI broth (Difco) plus 20% bovine serum, 10 μg/ml hemin and 1% Isovitale (Becton Dickinson).
(§3) The cultures are incubated at 37° C. for 18-24 hours; S. pneumoniae and H. influenzae in the presence of 8-10% CO2.
(§4) The lowest concentration of each substance at which there was no longer any visible bacterial growth is defined as the MIC. The MICs in μmol/l of some compounds according to the invention against a series of test organisms are listed by way of example in the table below.

[2] = tested on: Staphylococcus aureus 133; experiment: as above; type: cell-based
Procedure: as §1, §2, §3, §4

[3] = described in the literature; cited from earlier work
[4] = Staphylococcus aureus, 133, liquid dilution test, Isosensitest medium, 10^5 organisms per ml, 37° C., 18-24 hours, lowest concentration with no visible growth, read-out: MIC Staphylococcus aureus 133

| Structure (SMILES) | MIC [1] | MIC [2, 4] | MIC ([2]; Staphylococcus aureus, 133, read-out: MIC Staphylococcus aureus 133) | antibacterial activity [3] |
| --- | --- | --- | --- | --- |
| CC(C)[C@H](NC(=O)C[C@H](NC(=O)NCc1ccccc1)c1ccccc1)C(=O)[C@@H]1C(=O)NC(=O)[C@H]1C [Example 2, (S)-3-(3-Benzylureido)-N-{(S)-2-methyl-1-[1-((3R,4S)-4-methyl-2,5-dioxopyrrolidin-3-yl)-methanoyl]propyl}-3-phenylpropionamide] | 62.5 µM | 3.9 µM (≈ 1.92 µg/mL) |  |  |
| CC(C)[C@H](NC(=O)C[C@H](NC(=O)Nc1ccccc1)c1ccccc1)C(=O)[C@@H]1C(=O)NC(=O)[C@H]1C [Example 5, (S)-N-{(S)-2-Methyl-1-[1-((3R,4S)-4-methyl-2,5-dioxopyrrolidin-3-yl)-methanoyl]-propyl}-3-phenyl-3-(3-phenylureido)propionamide] |  | 62.5 µM (≈ 29.9 µg/mL) |  |  |
| COc1ccc(NC(=O)N[C@@H](CC(=O)N[C@H](C(=O)[C@@H]2C(=O)NC(=O)[C@H]2C)C(C)C)c2ccccc2)cc1 [Example 6, (S)-3-[3-(4-Methoxyphenyl)ureido]-N-{(S)-2-methyl-1-[1-((3R,4S)-4-methyl-2,5-dioxopyrrolidin-3-yl)methanoyl]propyl}-3-phenylpropionamide] | 62.5 µM | 62.5 µM (≈ 31.8 µg/mL) |  |  |
| CC(C)[C@H](NC(=O)C[C@H](NC(=O)N(C)c1ccccc1)c1ccccc1)C(=O)[C@@H]1C(=O)NC(=O)[C@H]1C [Example 7, (S)-N-{(S)-2-Methyl-1-[1-((3R,4S)-4-methyl-2,5-dioxopyrrolidin-3-yl)methanoyl]-propyl}-3-(3-methyl-3-phenylureido)-3-phenylpropionamide] | 31.3 µM | 15.6 µM (≈ 7.68 µg/mL) |  |  |
| CC(C)[C@H](NC(=O)CC(NC(=O)Nc1cccc2ccccc12)c1ccccc1)C(=O)[C@@H]1C(=O)NC(=O)[C@H]1C (stereo partly drawn) [Example 9, N-((1s)-2-Methyl-1-{[(3R,4S)-4-methyl-2,5-dioxo-3-pyrrolidinyl]carbonyl}propyl)-3-{[(1-naphthylamino)carbonyl]amino}-3-phenylpropionamide] | 62.5 µM | 7.8 µM (≈ 4.12 µg/mL) |  |  |
| CC(C)[C@H](NC(=O)CC(NC(=O)Nc1ccc(Cl)c(C(F)(F)F)c1)c1ccccc1)C(=O)[C@@H]1C(=O)NC(=O)[C@H]1C (stereo partly shown) [Example 10] | 125 µM | 7.8 µM (≈ 4.53 µg/mL) |  |  |
| C[C@@H]1C(=O)NC(=O)[C@H]1C(=O)C(NC(=O)C[C@H](NC(=O)OC(C)(C)C)c1ccccc1)C1CCCC1 (stereo partly shown) [Example 33] | 125 µM | 31.3 µM (≈ 15.2 µg/mL) |  |  |
| CC(C)[C@H](NC(=O)CC(NC(=O)Oc1ccc(-c2ccccc2)cc1)c1ccccc1)C(=O)[C@@H]1C(=O)NC(=O)[C@H]1C (stereo partly shown) [Example 35] |  |  | 0.98 µM (≈ 0.545 µg/mL) |  |
| CC(C)[C@H](NC(=O)C[C@H](NS(=O)(=O)/C=C/c1ccccc1)c1ccccc1)C(=O)[C@@H]1C(=O)NC(=O)[C@H]1C [Example 47, (3S)-N-((1S)-2-Methyl-1-{[(3R,4S)-4-methyl-2,5-dioxo-3-pyrrolidinyl]carbonyl}-propyl)-3-phenyl-3-({[(E)-2-phenylethenyl]sulfonyl}amino)propionamide] | 125 µM | 7.8 µM (≈ 4.1 µg/mL) |  |  |
| C/C=C/C=C/C=C/C(=O)N[C@@H](CC(=O)N[C@H](C(=O)[C@@H]1C(=O)NC(=O)[C@H]1C)C(C)C)c1ccccc1 [andrimid] |  |  |  | having antibacterial activity |
| C/C=C/C=C/C(=O)N[C@@H](CC(=O)N[C@H](C(=O)[C@@H]1C(=O)NC(=O)[C@H]1C)C(C)C)c1ccccc1 [moiramide B] |  |  |  | having antibacterial activity |
| C/C=C/C=C/C=C/C(=O)N[C@@H](CC(=O)N[C@H](C(=O)[C@@]1(O)C(=O)NC(=O)[C@H]1C)C(C)C)c1ccccc1 [moiramide C] |  |  |  | inactive |
